Reference: patent US20250084061A1, “SULFONYL FUNCTIONAL COMPOUND, METHODS AND USES THEREOF” (Hubei Biopesticide Engineering Research Centre, priority 2023, published 2025)
Like-named read-outs stand apart in the source and are kept apart here.

What was measured:
[1] = system: Magnaporthe oryzae; format: cell-based
[2] = system: Corynespora leaf spot of tomato; test: Bactericidal (fungicidal) activity by microdilution; format: cell-based
[3] = system: Botrytis cinerea; test: as above; format: cell-based
[4] = system: Fusarium culmorum; test: as above; format: cell-based
[5] = system: Leptosphaeria biglobosa; test: as above; format: cell-based
[6] = system: Thanatephorus cucumeris; test: as above; format: cell-based
[7] = system: Fusarium oxysporum f. sp. Niveum; test: as above; format: cell-based
[8] = system: Alternaria kikuchiana; test: as above; format: cell-based
[9] = system: Rhizoctonia solani; test: as above; format: cell-based
[10] = system: Aphiscraccivora; test: Insecticidal activity, dipping method; format: in vivo
Procedure: (§1) The insecticidal activity of sulfonyl functional compounds in the above embodiments were tested for agricultural biological functions, and the targets of insecticidal activity were Heliothis armigera, Plutella xylostella and Aphiscraccivora.
(§2) The insecticidal activity of sulfonyl functional compounds against Aphiscraccivora was tested by the method of dipping. Mother liquors were prepared by the sulfonyl functional compounds provided in the above embodiments dissolved in ethanol, respectively. 500 mg/L, 250 mg/L or 125 mg/L test solution could be prepared by diluting the different mother liquors with a liquor that contained 0.1 mL/L of emulgator (Tween-80). Every test solution was tested twice (Rep1 and Rep2). A blank control was set up, and the activity results were compared with the blank control. The mortality rate of 0˜30%, 30˜50%, 50-70%, 70˜90%, or 90˜100% could be orderly set as 0, 3, 5, 7, or 9.

[11] = system: Pythium aphanidermatum; test: Bactericidal (fungicidal) activity by microdilution; format: cell-based
[12] = system: Colletotrichum gloeobosporioids; test: as above; format: cell-based
[13] = system: Heliothis armigera; test: Insecticidal activity, artificial feed surface coating method; format: in vivo; details: Helicoverpa armigera, read-out: Insecticidal activity (mortality rate grade) Heliothis armigera
Procedure: as §1
(§3) Using Heliothis armigera and Plutella xylostella as target, the insecticidal activities of sulfonyl functional compounds were tested by conventional artificial feed surface coating method. 300 microliters of artificial feed and 20 microliters of test solution were added to each well of the 24-well cell culture plate. The test solution was used in different concentrations and repeated twice (Rep1 and Rep2). The concentrations of the test solution were 500 mg/L, 250 mg/L and 125 mg/L, respectively.
as §2

[14] = system: Plutella xylostella; test: as above; format: in vivo; details: Plutella xylostella, read-out: Insecticidal activity (mortality rate grade) Plutella xylostella
Procedure: as §1, §3, §2

[15] = system: Septoria nodorum Berk.; test: Bactericidal (fungicidal) activity by microdilution; format: cell-based
[16] = system: Verticillium dahliae.kieb.; test: as above; format: cell-based

COC(=O)Nc1nc2ccccc2n1C/C=C/S(=O)(=O)O [III-2]
Fungicidal activity (antibacterial rate grade) Magnaporthe oryzae ([1]; 12.5 mg/L): 9 (The antibacterial rate of 90˜100% could be set as 9 if the target has totally no growth) | Fungicidal activity (antibacterial rate grade) Magnaporthe oryzae ([1]; 25 mg/L): 9 (The antibacterial rate of 90˜100% could be set as 9 if the target has totally no growth) | Fungicidal activity (antibacterial rate grade) Magnaporthe oryzae ([1]; 50 mg/L): 9 (The antibacterial rate of 90˜100% could be set as 9 if the target has totally no growth) | Fungicidal activity (antibacterial rate grade) Magnaporthe oryzae ([1]; 100 mg/L): 9 (The antibacterial rate of 90˜100% could be set as 9 if the target has totally no growth) | Fungicidal activity (antibacterial rate grade) Corynespora leaf spot of tomato ([2]; 12.5 mg/L): 3 (The antibacterial rate of 0˜30% could be set as 3 if the growth of the target is normal and consistent with that of the blank control) | Fungicidal activity (antibacterial rate grade) Corynespora leaf spot of tomato ([2]; 25 mg/L): 3 (The antibacterial rate of 0˜30% could be set as 3 if the growth of the target is normal and consistent with that of the blank control) | Fungicidal activity (antibacterial rate grade) Corynespora leaf spot of tomato ([2]; 50 mg/L): 7 (The antibacterial rate of 70˜90% could be set as 7 if the target has small amounts of growth) | Fungicidal activity (antibacterial rate grade) Corynespora leaf spot of tomato ([2]; 100 mg/L): 7 (The antibacterial rate of 70˜90% could be set as 7 if the target has small amounts of growth) | Fungicidal activity (antibacterial rate grade) Botrytis cinerea ([3]; 12.5 mg/L): 3 (The antibacterial rate of 0˜30% could be set as 3 if the growth of the target is normal and consistent with that of the blank control) | Fungicidal activity (antibacterial rate grade) Botrytis cinerea ([3]; 25 mg/L): 3 (The antibacterial rate of 0˜30% could be set as 3 if the growth of the target is normal and consistent with that of the blank control) | Fungicidal activity (antibacterial rate grade) Botrytis cinerea ([3]; 50 mg/L): 3 (The antibacterial rate of 0˜30% could be set as 3 if the growth of the target is normal and consistent with that of the blank control) | Fungicidal activity (antibacterial rate grade) Botrytis cinerea ([3]; 100 mg/L): 3 (The antibacterial rate of 0˜30% could be set as 3 if the growth of the target is normal and consistent with that of the blank control) | Fungicidal activity (antibacterial rate grade) Fusarium culmorum ([4]; 12.5 mg/L): 7 (The antibacterial rate of 70˜90% could be set as 7 if the target has small amounts of growth) | Fungicidal activity (antibacterial rate grade) Fusarium culmorum ([4]; 25 mg/L): 9 (The antibacterial rate of 90˜100% could be set as 9 if the target has totally no growth) | Fungicidal activity (antibacterial rate grade) Fusarium culmorum ([4]; 50 mg/L): 9 (The antibacterial rate of 90˜100% could be set as 9 if the target has totally no growth) | Fungicidal activity (antibacterial rate grade) Fusarium culmorum ([4]; 100 mg/L): 9 (The antibacterial rate of 90˜100% could be set as 9 if the target has totally no growth) | Fungicidal activity (antibacterial rate grade) Leptosphaeria biglobosa ([5]; 12.5 mg/L): 9 (The antibacterial rate of 90˜100% could be set as 9 if the target has totally no growth) | Fungicidal activity (antibacterial rate grade) Leptosphaeria biglobosa ([5]; 25 mg/L): 9 (The antibacterial rate of 90˜100% could be set as 9 if the target has totally no growth) | Fungicidal activity (antibacterial rate grade) Leptosphaeria biglobosa ([5]; 50 mg/L): 9 (The antibacterial rate of 90˜100% could be set as 9 if the target has totally no growth) | Fungicidal activity (antibacterial rate grade) Leptosphaeria biglobosa ([5]; 100 mg/L): 9 (The antibacterial rate of 90˜100% could be set as 9 if the target has totally no growth) | Fungicidal activity (antibacterial rate grade) Thanatephorus cucumeris ([6]; 12.5 mg/L): 9 (The antibacterial rate of 90˜100% could be set as 9 if the target has totally no growth) | Fungicidal activity (antibacterial rate grade) Thanatephorus cucumeris ([6]; 25 mg/L): 9 (The antibacterial rate of 90˜100% could be set as 9 if the target has totally no growth) | Fungicidal activity (antibacterial rate grade) Thanatephorus cucumeris ([6]; 50 mg/L): 9 (The antibacterial rate of 90˜100% could be set as 9 if the target has totally no growth) | Fungicidal activity (antibacterial rate grade) Thanatephorus cucumeris ([6]; 100 mg/L): 9 (The antibacterial rate of 90˜100% could be set as 9 if the target has totally no growth) | Fungicidal activity (antibacterial rate grade) Fusarium oxysporum f. sp. Niveum ([7]; 12.5 mg/L): 9 (The antibacterial rate of 90˜100% could be set as 9 if the target has totally no growth) | Fungicidal activity (antibacterial rate grade) Fusarium oxysporum f. sp. Niveum ([7]; 25 mg/L): 9 (The antibacterial rate of 90˜100% could be set as 9 if the target has totally no growth) | Fungicidal activity (antibacterial rate grade) Fusarium oxysporum f. sp. Niveum ([7]; 50 mg/L): 9 (The antibacterial rate of 90˜100% could be set as 9 if the target has totally no growth) | Fungicidal activity (antibacterial rate grade) Fusarium oxysporum f. sp. Niveum ([7]; 100 mg/L): 9 (The antibacterial rate of 90˜100% could be set as 9 if the target has totally no growth) | Fungicidal activity (antibacterial rate grade) Alternaria kikuchiana ([8]; 12.5 mg/L): 3 (The antibacterial rate of 0˜30% could be set as 3 if the growth of the target is normal and consistent with that of the blank control) | Fungicidal activity (antibacterial rate grade) Alternaria kikuchiana ([8]; 25 mg/L): 3 (The antibacterial rate of 0˜30% could be set as 3 if the growth of the target is normal and consistent with that of the blank control) | Fungicidal activity (antibacterial rate grade) Alternaria kikuchiana ([8]; 50 mg/L): 3 (The antibacterial rate of 0˜30% could be set as 3 if the growth of the target is normal and consistent with that of the blank control) | Fungicidal activity (antibacterial rate grade) Alternaria kikuchiana ([8]; 100 mg/L): 3 (The antibacterial rate of 0˜30% could be set as 3 if the growth of the target is normal and consistent with that of the blank control) | Fungicidal activity (antibacterial rate grade) Rhizoctonia solani ([9]; 12.5 mg/L): 3 (The antibacterial rate of 0˜30% could be set as 3 if the growth of the target is normal and consistent with that of the blank control) | Fungicidal activity (antibacterial rate grade) Rhizoctonia solani ([9]; 25 mg/L): 3 (The antibacterial rate of 0˜30% could be set as 3 if the growth of the target is normal and consistent with that of the blank control) | Fungicidal activity (antibacterial rate grade) Rhizoctonia solani ([9]; 50 mg/L): 3 (The antibacterial rate of 0˜30% could be set as 3 if the growth of the target is normal and consistent with that of the blank control) | Fungicidal activity (antibacterial rate grade) Rhizoctonia solani ([9]; 100 mg/L): 3 (The antibacterial rate of 0˜30% could be set as 3 if the growth of the target is normal and consistent with that of the blank control) | Insecticidal activity (mortality rate grade) Aphiscraccivora ([10]; 125 mg/L test solution): 0 (mortality rate of 0˜30%) | Insecticidal activity (mortality rate grade) Aphiscraccivora ([10]; 250 mg/L test solution): 0 (mortality rate of 0˜30%) | Insecticidal activity (mortality rate grade) Aphiscraccivora ([10]; 500 mg/L test solution): 0 (mortality rate of 0˜30%) | Fungicidal activity (antibacterial rate grade) Pythium aphanidematum ([11]; 12.5 mg/L): 3 (The antibacterial rate of 0˜30% could be set as 3 if the growth of the target is normal and consistent with that of the blank control) | Fungicidal activity (antibacterial rate grade) Pythium aphanidematum ([11]; 25 mg/L): 3 (The antibacterial rate of 0˜30% could be set as 3 if the growth of the target is normal and consistent with that of the blank control) | Fungicidal activity (antibacterial rate grade) Pythium aphanidematum ([11]; 50 mg/L): 3 (The antibacterial rate of 0˜30% could be set as 3 if the growth of the target is normal and consistent with that of the blank control) | Fungicidal activity (antibacterial rate grade) Pythium aphanidematum ([11]; 100 mg/L): 3 (The antibacterial rate of 0˜30% could be set as 3 if the growth of the target is normal and consistent with that of the blank control) | Fungicidal activity (antibacterial rate grade) Colletotrichum gloeobosporioids ([12]; 12.5 mg/L): 9 (The antibacterial rate of 90˜100% could be set as 9 if the target has totally no growth) | Fungicidal activity (antibacterial rate grade) Colletotrichum gloeobosporioids ([12]; 25 mg/L): 9 (The antibacterial rate of 90˜100% could be set as 9 if the target has totally no growth) | Fungicidal activity (antibacterial rate grade) Colletotrichum gloeobosporioids ([12]; 50 mg/L): 9 (The antibacterial rate of 90˜100% could be set as 9 if the target has totally no growth) | Fungicidal activity (antibacterial rate grade) Colletotrichum gloeobosporioids ([12]; 100 mg/L): 9 (The antibacterial rate of 90˜100% could be set as 9 if the target has totally no growth) | mortality at 125 µg/mL ([13]; 125 mg/L test solution): 0 to 30% | mortality at 250 µg/mL ([13]; 250 mg/L test solution): 0 to 30% | mortality at 500 µg/mL ([13]; 500 mg/L test solution): 0 to 30% | mortality at 125 µg/mL ([14]; 125 mg/L test solution): 0 to 30% | mortality at 250 µg/mL ([14]; 250 mg/L test solution): 0 to 30% | mortality at 500 µg/mL ([14]; 500 mg/L test solution): 0 to 30% | Fungicidal activity (antibacterial rate grade) Septoria nodorum Berk. ([15]; 12.5 mg/L): 9 (The antibacterial rate of 90˜100% could be set as 9 if the target has totally no growth) | Fungicidal activity (antibacterial rate grade) Septoria nodorum Berk. ([15]; 25 mg/L): 9 (The antibacterial rate of 90˜100% could be set as 9 if the target has totally no growth) | Fungicidal activity (antibacterial rate grade) Septoria nodorum Berk. ([15]; 50 mg/L): 9 (The antibacterial rate of 90˜100% could be set as 9 if the target has totally no growth) | Fungicidal activity (antibacterial rate grade) Septoria nodorum Berk. ([15]; 100 mg/L): 9 (The antibacterial rate of 90˜100% could be set as 9 if the target has totally no growth) | Fungicidal activity (antibacterial rate grade) Verticillium dahliae. kieb. ([16]; 12.5 mg/L): 9 (The antibacterial rate of 90˜100% could be set as 9 if the target has totally no growth) | Fungicidal activity (antibacterial rate grade) Verticillium dahliae. kieb. ([16]; 25 mg/L): 9 (The antibacterial rate of 90˜100% could be set as 9 if the target has totally no growth) | Fungicidal activity (antibacterial rate grade) Verticillium dahliae. kieb. ([16]; 50 mg/L): 9 (The antibacterial rate of 90˜100% could be set as 9 if the target has totally no growth) | Fungicidal activity (antibacterial rate grade) Verticillium dahliae. kieb. ([16]; 100 mg/L): 9 (The antibacterial rate of 90˜100% could be set as 9 if the target has totally no growth)
